pIC50: −log10 of the molar value.
Assays:
AKT1 WT = biological target: T1, AKT1 WT (Homo sapiens, UniProt P31749); test: Live cell target engagement by NanoBRET competitive probe displacement, AKT1 WT; assay type: binding; conditions: transfected HEK293 cells, 2 h at 37° C., read-out: AKT1 WT IC50: GeoMean IC50
T1 construct: expressed in transfected cells; host or cells: HEK293

AKT1 E17K = biological target: T2, AKT1 E17K (Homo sapiens, UniProt P31749, E17K); test: Live cell target engagement by NanoBRET competitive probe displacement, AKT1 E17K; assay type: binding; conditions: transfected HEK293 cells, 2 h at 37° C., read-out: AKT1 E17K IC50: GeoMean IC50
T2 construct: expressed in transfected cells; host or cells: HEK293

[1] = tested on: LAPC4 prostate cancer cells, which express the AKT1 E17K allele; test: Antiproliferative effects in LAPC4 cells (CellTiter Glo, 72 h); assay type: cell-based; conditions: Homo sapiens, LAPC4, 72 h, read-out: LAPC4 proliferation IC50: GeoMean IC50
In short: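 Cells grown in IMDM with 12% FBS, seeded at 1,000 cells/well and treated with compound dilutions in DMSO for 72 h. Intracellular ATP read by luminescence. IC50 from a log(inhibitor) vs. response Hill fit.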

AKT2 = biological target: T3, AKT2 (Homo sapiens, UniProt P31751); test: Live cell target engagement by NanoBRET competitive probe displacement, AKT2; assay type: binding; conditions: transfected HEK293 cells, 2 h at 37° C., read-out: AKT2 IC50: GeoMean IC50
T3 construct: expressed in transfected cells; host or cells: HEK293
T3 sequence (P31751 whole entry): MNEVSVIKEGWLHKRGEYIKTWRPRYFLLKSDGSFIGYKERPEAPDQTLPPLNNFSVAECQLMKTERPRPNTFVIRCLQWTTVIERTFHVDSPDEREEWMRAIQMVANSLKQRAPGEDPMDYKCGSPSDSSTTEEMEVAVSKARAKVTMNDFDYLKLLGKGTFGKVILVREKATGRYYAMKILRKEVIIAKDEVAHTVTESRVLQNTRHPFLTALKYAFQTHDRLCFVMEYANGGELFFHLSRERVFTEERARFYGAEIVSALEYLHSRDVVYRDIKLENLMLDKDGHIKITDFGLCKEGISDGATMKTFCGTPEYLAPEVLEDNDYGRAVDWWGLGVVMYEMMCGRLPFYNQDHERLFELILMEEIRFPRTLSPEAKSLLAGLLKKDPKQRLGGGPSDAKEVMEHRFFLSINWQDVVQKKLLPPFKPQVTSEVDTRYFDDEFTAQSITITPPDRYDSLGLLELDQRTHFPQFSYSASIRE

T2 sequence (P31749 whole entry E17K): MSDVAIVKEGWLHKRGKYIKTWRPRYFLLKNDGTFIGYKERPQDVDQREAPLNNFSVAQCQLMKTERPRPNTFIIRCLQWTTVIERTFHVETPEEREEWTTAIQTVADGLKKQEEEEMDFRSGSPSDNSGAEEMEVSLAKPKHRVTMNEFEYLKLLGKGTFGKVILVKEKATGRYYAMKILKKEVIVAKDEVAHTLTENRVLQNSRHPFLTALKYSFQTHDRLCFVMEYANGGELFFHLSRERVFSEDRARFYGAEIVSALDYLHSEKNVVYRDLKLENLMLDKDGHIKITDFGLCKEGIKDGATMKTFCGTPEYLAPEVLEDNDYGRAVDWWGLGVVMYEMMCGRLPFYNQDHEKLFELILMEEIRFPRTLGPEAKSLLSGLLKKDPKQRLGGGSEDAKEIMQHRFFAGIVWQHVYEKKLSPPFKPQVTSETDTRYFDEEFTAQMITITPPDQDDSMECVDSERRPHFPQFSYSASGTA
T1 sequence (P31749 whole entry): as the sequence (P31749 whole entry E17K) above, with K17E counted along it

SMILES | pIC50 (AKT1 WT) | pIC50 (AKT1 E17K) | pIC50 [1] | pIC50 (AKT2)
Cc1ccc2nc(-c3cccnc3N)n(-c3ccc4c(c3)CC[C@@H]4NC(=O)c3cc(F)c(O)c(C=O)c3)c2n1 [Example 44, (S)—N-(5-(2-(2-aminopyridin-3-yl)-5-methyl-3H-imidazo[4,5-b]pyridin-3-yl)-2,3-dihydro-1H-inden-1-yl)-3-fluoro-5-formyl-4-hydroxybenzamide] | 5.70 to 7.00 | 5.70 to 7.00 | 5.70 to 7.00 | ≤ 5.70
CC(=O)Nc1ccc(C(=O)N[C@H]2CCc3cc(-n4c(-c5cccnc5N)nc5ccc(C)nc54)ccc32)cc1C=O [Example 45, N-[(1S)-5-[2-(2-aminopyridin-3-yl)-5-methylimidazo[4,5-b]pyridin-3-yl]-2,3-dihydro-1H-inden-1-yl]-4-acetamido-3-formylbenzamide] | 5.70 to 7.00 | 5.70 to 7.00 | 5.70 to 7.00 | ≤ 5.70
COc1ccc2nc(-c3cccnc3N)n(-c3ccc4c(c3)CC[C@@H]4NC(=O)c3ccc(O)c(C=O)c3)c2n1 [Example 46, (S)—N-(5-(2-(2-aminopyridin-3-yl)-5-methoxy-3H-imidazo[4,5-b]pyridin-3-yl)-2,3-dihydro-1H-inden-1-yl)-3-formyl-4-hydroxybenzamide] | 5.70 to 7.00 | 5.70 to 7.00 | 5.70 to 7.00 | ≤ 5.70
Nc1ncccc1-c1nc2ccc(-c3ccccc3)nc2n1-c1ccc2c(c1)CC[C@@H]2NC(=O)c1ccc(NC(=O)C2CC2)c(C=O)c1 [Example 47, N-[(1S)-5-[2-(2-aminopyridin-3-yl)-5-phenylimidazo[4,5-b]pyridin-3-yl]-2,3-dihydro-1H-inden-1-yl]-4-cyclopropaneamido-3-formylbenzamide] | 7.00 to 8.00 | 7.00 to 8.00 | 7.00 to 8.00 | 7.00 to 8.00
Nc1ncccc1-c1nc2ccc(F)nc2n1-c1ccc2c(c1)CC[C@@H]2NC(=O)c1ccc(O)c(C=O)c1 [Example 48, N-[(1S)-5-[2-(2-aminopyridin-3-yl)-5-fluoroimidazo[4,5-b]pyridin-3-yl]-2,3-dihydro-1H-inden-1-yl]-3-formyl-4-hydroxybenzamide] | 5.70 to 7.00 | 7.00 to 8.00 | 5.70 to 7.00 | ≤ 5.70
Nc1ncccc1-c1nc2ccc(C3CC3)nc2n1-c1ccc2c(c1)CC[C@@H]2NC(=O)c1ccc(O)c(C=O)c1 [Example 49, N-[(1S)-5-[2-(2-aminopyridin-3-yl)-5-cyclopropylimidazo[4,5-b]pyridin-3-yl]-2,3-dihydro-1H-inden-1-yl]-3-formyl-4-hydroxybenzamide] | 5.70 to 7.00 | 5.70 to 7.00 | 5.70 to 7.00 | ≤ 5.70
C#Cc1ccc2nc(-c3cccnc3N)n(-c3ccc4c(c3)CC[C@@H]4NC(=O)c3ccc(O)c(C=O)c3)c2n1 [Example 50, N-[(1S)-5-[2-(2-aminopyridin-3-yl)-5-ethynylimidazo[4,5-b]pyridin-3-yl]-2,3-dihydro-1H-inden-1-yl]-3-formyl-4-hydroxybenzamide] | 5.70 to 7.00 | 7.00 to 8.00 | 5.70 to 7.00 | ≤ 5.70
CS(=O)(=O)Nc1ccc(C(=O)N[C@H]2CCc3cc(-n4c(-c5cccnc5N)nc5ccc(-c6ccccc6)nc54)ccc32)cc1C=O [Example 51, N-[(1S)-5-[2-(2-aminopyridin-3-yl)-5-phenylimidazo[4,5-b]pyridin-3-yl]-2,3-dihydro-1H-inden-1-yl]-3-formyl-4-methanesulfonamidobenzamide] | 7.00 to 8.00 | > 8.00 | 7.00 to 8.00 | 7.00 to 8.00
Nc1ncccc1-c1nc2ccc(-c3ccccc3)nc2n1-c1ccc2c(c1)CC[C@@H]2NC(=O)c1ccc(NC(=O)C(F)F)c(C=O)c1 [Example 52, N-[(1S)-5-[2-(2-aminopyridin-3-yl)-5-phenylimidazo[4,5-b]pyridin-3-yl]-2,3-dihydro-1H-inden-1-yl]-4-(2,2-difluoroacetamido)-3-formylbenzamide] | > 8.00 | > 8.00 | 7.00 to 8.00 | 7.00 to 8.00
CC(=O)Nc1ccc(C(=O)N[C@H]2CCc3cc(-n4c(-c5cccnc5N)nc5ccc(N6CCOCC6)nc54)ccc32)cc1C=O [Example 53, N-[(1S)-5-[2-(2-aminopyridin-3-yl)-5-(morpholin-4-yl)imidazo[4,5-b]pyridin-3-yl]-2,3-dihydro-1H-inden-1-yl]-4-acetamido-3-formylbenzamide] | 7.00 to 8.00 | > 8.00 | 5.70 to 7.00 | 5.70 to 7.00
Nc1ncccc1-c1nc2ccc(-c3ccccc3)nc2n1-c1ccc2c(c1)CC[C@@H]2NC(=O)c1cnn2ccc(O)c(C=O)c12 [Example 54, N-[(1S)-5-[2-(2-aminopyridin-3-yl)-5-phenylimidazo[4,5-b]pyridin-3-yl]-2,3-dihydro-1H-inden-1-yl]-4-formyl-5-hydroxypyrazolo[1,5-a]pyridine-3-carboxamide] | 7.00 to 8.00 | 5.70 to 7.00 | ≤ 5.70 | 5.70 to 7.00
Nc1ncccc1-c1nc2ccc(C(F)(F)F)nc2n1-c1ccc2c(c1)CC[C@@H]2NC(=O)c1ccc(O)c(C=O)c1 [Example 55, (S)—N-(5-(2-(2-aminopyridin-3-yl)-5-(trifluoromethyl)-3H-imidazo[4,5-b]pyridin-3-yl)-2,3-dihydro-1H-inden-1-yl)-3-formyl-4-hydroxybenzamide] | 5.70 to 7.00 | 5.70 to 7.00 | ≤ 5.70 | ≤ 5.70
CC(=O)Nc1ccc(C(=O)N[C@H]2CCc3cc(-n4c(-c5cccnc5N)nc5ccc(-n6cccn6)nc54)ccc32)cc1C=O [Example 56, N-[(1S)-5-[2-(2-aminopyridin-3-yl)-5-(pyrazol-1-yl)imidazo[4,5-b]pyridin-3-yl]-2,3-dihydro-1H-inden-1-yl]-4-acetamido-3-formylbenzamide] | 7.00 to 8.00 | > 8.00 | 7.00 to 8.00 | 5.70 to 7.00
Nc1ncccc1-c1nc2ccc(-c3nccs3)nc2n1-c1ccc2c(c1)CC[C@@H]2NC(=O)c1ccc(O)c(C=O)c1 [Example 57, N-[(1S)-5-[2-(2-aminopyridin-3-yl)-5-(1,3-thiazol-2-yl)imidazo[4,5-b]pyridin-3-yl]-2,3-dihydro-1H-inden-1-yl]-3-formyl-4-hydroxybenzamide] | 7.00 to 8.00 | 7.00 to 8.00 | 7.00 to 8.00 | 5.70 to 7.00
Nc1ncccc1-c1nc2ccc(-c3cncnc3)nc2n1-c1ccc2c(c1)CC[C@@H]2NC(=O)c1ccc(O)c(C=O)c1 [Example 58, N-[(1S)-5-[2-(2-aminopyridin-3-yl)-5-(pyrimidin-5-yl)imidazo[4,5-b]pyridin-3-yl]-2,3-dihydro-1H-inden-1-yl]-3-formyl-4-hydroxybenzamide] | 7.00 to 8.00 | 7.00 to 8.00 | 7.00 to 8.00 | 5.70 to 7.00
Cn1ccc(-c2ccc3nc(-c4cccnc4N)n(-c4ccc5c(c4)CC[C@@H]5NC(=O)c4ccc(O)c(C=O)c4)c3n2)n1 [Example 59, (S)—N-(5-(2-(2-aminopyridin-3-yl)-5-(1-methyl-1H-pyrazol-3-yl)-3Himidazo[4,5-b]pyridin-3-yl)-2,3-dihydro-1H-inden-1-yl)-3-formyl-4-hydroxybenzamide] | 7.00 to 8.00 | 7.00 to 8.00 | 7.00 to 8.00 | 5.70 to 7.00
Nc1ncccc1-c1nc2ccc(-c3cnn(C(F)F)c3)nc2n1-c1ccc2c(c1)CC[C@@H]2NC(=O)c1ccc(O)c(C=O)c1 [Example 61, N-[(1S)-5-[2-(2-aminopyridin-3-yl)-5-[1-(difluoromethyl)pyrazol-4-yl]imidazo[4,5-b]pyridin-3-yl]-2,3-dihydro-1H-inden-1-yl]-3-formyl-4-hydroxybenzamide] | 7.00 to 8.00 | 7.00 to 8.00 | 7.00 to 8.00 | 5.70 to 7.00
Nc1ncccc1-c1nc2ccc(-c3cnn(C4CC4)c3)nc2n1-c1ccc2c(c1)CC[C@@H]2NC(=O)c1ccc(O)c(C=O)c1 [Example 62, N-[(1S)-5-[2-(2-aminopyridin-3-yl)-5-(1-cyclopropylpyrazol-4-yl)imidazo[4,5-b]pyridin-3-yl]-2,3-dihydro-1H-inden-1-yl]-3-formyl-4-hydroxybenzamide] | 7.00 to 8.00 | 7.00 to 8.00 | 5.70 to 7.00 | 5.70 to 7.00
CN(C)C(=O)Nc1ccc(C(=O)N[C@H]2CCc3cc(-n4c(-c5cccnc5N)nc5ccc(-c6ccccc6)nc54)ccc32)cc1C=O [Example 63, (S)—N-(5-(2-(2-aminopyridin-3-yl)-5-phenyl-3H-imidazo[4,5-b]pyridin-3-yl)-2,3-dihydro-1H-inden-1-yl)-4-(3,3-dimethylureido)-3-formylbenzamide] | > 8.00 | > 8.00 | > 8.00 | 7.00 to 8.00
CC(=O)Nc1c(F)cc(C(=O)N[C@H]2CCc3cc(-n4c(-c5cccnc5N)nc5ccc(-c6ccccc6)nc54)ccc32)cc1C=O [Example 64, N-[(1S)-5-[2-(2-aminopyridin-3-yl)-5-phenylimidazo[4,5-b]pyridin-3-yl]-2,3-dihydro-1H-inden-1-yl]-4-acetamido-3-fluoro-5-formylbenzamide] | 7.00 to 8.00 | 7.00 to 8.00 | 7.00 to 8.00 | 7.00 to 8.00
Nc1ncccc1-c1nc2ccc(-n3cccn3)nc2n1-c1ccc2c(c1)CC[C@@H]2NC(=O)c1cc(C=O)c2[nH]ncc2c1 [Example 66, N-[(1S)-5-[2-(2-aminopyridin-3-yl)-5-(pyrazol-1-yl)imidazo[4,5-b]pyridin-3-yl]-2,3-dihydro-1H-inden-1-yl]-7-formyl-1H-indazole-5-carboxamide] | 7.00 to 8.00 | > 8.00 | 7.00 to 8.00 | 5.70 to 7.00

From US20260053834A1, “COVALENT MODIFIERS OF AKT1 AND USES THEREOF” (Terremoto Biosciences, Inc., priority 2023, published 2026)
